Columns and labels:
spring wheat (TRZAS) = experiment: Postemergence greenhouse trial, % visual injury on spring wheat; assay type: in vivo, Triticum aestivum; settings: TRZAS, CQC-m 0
Method in brief: (§1)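 Injury was scored visually (0 = none, 100 = complete kill) 20–22 d after track-sprayer application at 187 L/ha, compared with solvent-sprayed controls. Test plants at the 2–3 true leaf stage; herbicide (g ae/ha) plus cloquintocet-mexyl safener (g ai/ha) in crop-oil-containing spray; expected mixture response by Colby.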

winter rape (BRSNW) = experiment: Postemergence greenhouse trial, % visual injury on winter rape; assay type: in vivo, Brassica napus; settings: Brassica napus, post-emergence, BRSNW, CQC-m 0, read-out: % visual injury, Ob; for plant injury at 4.38 g/ha: compound 4.380 g/ha; for plant injury at 8.75 g/ha: compound 8.75 g/ha; for plant injury at 17.5 g/ha: compound 17.5 g/ha; for plant injury at 35 g/ha: compound 35 g/ha; for plant injury at 70 g/ha: compound 70 g/ha
Method in brief: (§2)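 Visual injury, 0 (none) to 100 (complete kill), rated 20-22 d after overhead track-sprayer application at 187 L/ha; Colby's equation gave expected mixture responses. Herbicide (g ae/ha) and cloquintocet-mexyl safener (g ai/ha) diluted in aqueous 1.5% v/v Agri-dex, applied to weeds at 2–3 true leaves.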

thistle (CIRAR) = experiment: Postemergence greenhouse trial, % visual injury on thistle; assay type: in vivo, Cirsium arvense; settings: Cirsium arvense, post-emergence, CIRAR, CQC-m 0, read-out: % visual injury, Ob; for pest or weed control at 4.38 g/ha: compound 4.380 g/ha; for pest or weed control at 8.75 g/ha: compound 8.75 g/ha; for pest or weed control at 17.5 g/ha: compound 17.5 g/ha; for pest or weed control at 35 g/ha: compound 35 g/ha; for pest or weed control at 70 g/ha: compound 70 g/ha
Method in brief: as §2

Russian thistle (SASKR) = experiment: Postemergence greenhouse trial, % visual injury on Russian thistle; assay type: in vivo, Salsola kali; settings: SASKR, CQC-m 0
pigweed (AMARE) = experiment: Postemergence greenhouse trial, % visual injury on pigweed; assay type: in vivo, Amaranthus retroflexus; settings: Amaranthus retroflexus, post-emergence, AMARE, CQC-m 0, read-out: % visual injury, Ob
Method in brief: as §1

**Q.** What does the source list for `CCCCOC(=O)c1nc(-c2ccc3cc[nH]c3c2F)c(F)c(N)c1Cl` [compound 9]?
**A.** % visual injury, Ob (spring wheat (TRZAS); compound 4.380 g/ha): 10%; % visual injury, Ob (spring wheat (TRZAS); compound 8.75 g/ha): 25%; % visual injury, Ob (spring wheat (TRZAS); compound 17.5 g/ha): 30%; % visual injury, Ob (spring wheat (TRZAS); compound 35 g/ha): 50%; % visual injury, Ob (spring wheat (TRZAS); compound 70 g/ha): 60%; plant injury at 4.38 g/ha (winter rape (BRSNW)): 60%; plant injury at 8.75 g/ha (winter rape (BRSNW)): 60%; plant injury at 17.5 g/ha (winter rape (BRSNW)): 90%; plant injury at 35 g/ha (winter rape (BRSNW)): 98%; plant injury at 70 g/ha (winter rape (BRSNW)): 100%; pest or weed control at 4.38 g/ha (thistle (CIRAR)): 10%; pest or weed control at 8.75 g/ha (thistle (CIRAR)): 30%; pest or weed control at 17.5 g/ha (thistle (CIRAR)): 70%; pest or weed control at 35 g/ha (thistle (CIRAR)): 95%; pest or weed control at 70 g/ha (thistle (CIRAR)): 97%; % visual injury, Ob (Russian thistle (SASKR); compound 4.380 g/ha): 65%; % visual injury, Ob (Russian thistle (SASKR); compound 8.75 g/ha): 70%; % visual injury, Ob (Russian thistle (SASKR); compound 17.5 g/ha): 80%; % visual injury, Ob (Russian thistle (SASKR); compound 35 g/ha): 85%; % visual injury, Ob (Russian thistle (SASKR); compound 70 g/ha): 87%; pest or weed control at 4.38 g/ha (pigweed (AMARE); compound 4.380 g/ha): 10%; pest or weed control at 8.75 g/ha (pigweed (AMARE); compound 8.75 g/ha): 20%; pest or weed control at 17.5 g/ha (pigweed (AMARE); compound 17.5 g/ha): 50%; pest or weed control at 70 g/ha (pigweed (AMARE); compound 70 g/ha): 100%

**Q.** What does the source list for `CO/C=N/c1c(F)c(-c2ccc3cc[nH]c3c2F)nc(C(=O)OC)c1Cl` [compound 10]?
**A.** % visual injury, Ob (spring wheat (TRZAS); compound 4.380 g/ha): 10%; % visual injury, Ob (spring wheat (TRZAS); compound 8.75 g/ha): 25%; % visual injury, Ob (spring wheat (TRZAS); compound 17.5 g/ha): 40%; % visual injury, Ob (spring wheat (TRZAS); compound 35 g/ha): 60%; % visual injury, Ob (spring wheat (TRZAS); compound 70 g/ha): 70%; plant injury at 4.38 g/ha (winter rape (BRSNW)): 85%; plant injury at 8.75 g/ha (winter rape (BRSNW)): 95%; plant injury at 17.5 g/ha (winter rape (BRSNW)): 100%; plant injury at 35 g/ha (winter rape (BRSNW)): 100%; plant injury at 70 g/ha (winter rape (BRSNW)): 100%; pest or weed control at 4.38 g/ha (thistle (CIRAR)): 30%; pest or weed control at 8.75 g/ha (thistle (CIRAR)): 40%; pest or weed control at 17.5 g/ha (thistle (CIRAR)): 60%; pest or weed control at 35 g/ha (thistle (CIRAR)): 85%; pest or weed control at 70 g/ha (thistle (CIRAR)): 100%; % visual injury, Ob (Russian thistle (SASKR); compound 4.380 g/ha): 70%; % visual injury, Ob (Russian thistle (SASKR); compound 8.75 g/ha): 80%; % visual injury, Ob (Russian thistle (SASKR); compound 17.5 g/ha): 87%; % visual injury, Ob (Russian thistle (SASKR); compound 35 g/ha): 90%; % visual injury, Ob (Russian thistle (SASKR); compound 70 g/ha): 93%

Reference: patent US9763445B2, “Safened herbicidal compositions comprising a pyridine carboxylic acid herbicide” (Dow AgroSciences, LLC, priority 2014, dated 2017)
